Results as given in BindingDB's records for doi:10.1016/j.bmc.2016.12.017 (Sunshine Lake Pharma, 2017).

Experiment: Inhibition of hepatitis B virus capsid assembly infected in human HepG2.215 cells assessed as reduction in viral DNA replication measured on day 7 by real time PCR analysis

Compared with `CCOC(=O)C1=C(COC)NC(c2nccs2)=NC1c1ccc(F)cc1Cl` (configuration not stated), `CCOCC1=C(C(=O)OCC)C(c2ccc(F)cc2Cl)N=C(c2nccs2)N1` (configuration not stated) is lower in EC50: greater than 16400 nM for the first, 800 nM for the second.

Going from `CCOC(=O)C1=C(CO)NC(c2nccs2)=NC1c1ccc(F)cc1Cl` (configuration not stated) to `CCOC(=O)C1=C(CN)NC(c2nccs2)=NC1c1ccc(F)cc1Cl` (configuration not stated), the EC50 falls from greater than 16400 nM to 5100 nM. The second is the more potent here.

Compared with `CCOC(=O)C1=C(CN2CC[S+]([O-])CC2)NC(c2nccs2)=NC1c1ccc(F)cc1Cl` (configuration not stated), `CCOC(=O)C1=C(CN2CCCCC2)NC(c2nccs2)=NC1c1ccc(F)cc1Cl` (configuration not stated) is 35-fold higher in EC50: 100 nM for the first, 3500 nM for the second. The first is the more potent here.

First: Cc1cn([C@@H]2C[C@@H](O)[C@H](CO)O2)c(=O)[nH]c1=O [CHEBI:63624]
Second: C=C1[C@H](CO)[C@@H](O)C[C@@H]1n1cnc2c(=O)[nH]c(N)nc21 [CHEBI:473990]
The EC50 of the first is 3400-fold higher: 819 nM for the first, 0.24 nM for the second.

First: CCOC(=O)C1=C(COCCOC)NC(c2nccs2)=NC1c1ccc(F)cc1Cl (configuration not stated)
Second: CCCOCC1=C(C(=O)OCC)C(c2ccc(F)cc2Cl)N=C(c2nccs2)N1 (configuration not stated)
The EC50 of the first is 6-fold lower: 200 nM for the first, 1200 nM for the second. The first is the more potent here.

Compared with `CCOC(=O)C1=C(CN2CCOCC2)NC(c2nnc(C)s2)=NC1c1ccc(F)cc1Br` (configuration not stated), `CCOC(=O)C1=C(CN2CCOCC2)NC(c2ncn(C)n2)=NC1c1ccc(F)cc1Br` (configuration not stated) is lower in EC50: greater than 16400 nM for the first, 4300 nM for the second.

Compared with `CC1=C(C(=O)OC(C)(C)C)C(c2ccc(F)cc2Cl)N=C(c2nccs2)N1` (configuration not stated), `COC(=O)C1=C(C)NC(c2nccs2)=NC1c1ccc(F)cc1Cl` (configuration not stated) is lower in EC50: greater than 16400 nM for the first, 250 nM for the second.

Going from `C[C@H](Cn1cnc2c(N)ncnc21)OCP(=O)(O)O` [CHEBI:63625] to `Nc1ncnc2c1ncn2CCOCP(=O)(O)O` [9-[2-phosphonomethoxyethyl]adenine], the EC50 falls from 242 nM to 83 nM (2.9-fold). The second is the more potent here.

`CC1=C(C(=O)NN)C(c2ccc(F)cc2Cl)N=C(c2nccs2)N1` (configuration not stated) and `CNC(=O)C1=C(C)NC(c2nccs2)=NC1c1ccc(F)cc1Cl` (configuration not stated) cannot be ordered by EC50: greater than 16400 nM for the first, greater than 16400 nM for the second.

Going from `CC1=C(C(=O)OC(C)C)C(c2ccc(F)cc2Cl)N=C(c2nccs2)N1` (configuration not stated) to `COC(=O)C1=C(C)NC(c2nccs2)=N[C@H]1c1ccc(F)cc1Cl`, the EC50 falls from greater than 16400 nM to 100 nM. The second is the more potent here.

`CCOC(=O)C1=C(CN2CCOCC2)NC(n2cnnn2)=NC1c1ccc(F)cc1Br` (configuration not stated) and `CCOC(=O)C1=C(CN2CCOCC2)NC(n2nnc(C)n2)=NC1c1ccc(F)cc1Br` (configuration not stated) cannot be ordered by EC50: greater than 16400 nM for the first, greater than 16400 nM for the second.

First: CCOC(=O)C1=C(CN2CCOCC2)NC(c2ncc(F)cc2F)=NC1c1ccc(F)cc1Br (configuration not stated)
Second: CCOC(=O)C1=C(CN2CCOCC2)NC(c2nccn2C)=NC1c1ccc(F)cc1Br (configuration not stated)
The EC50 of the first is 3.3-fold lower: 6 nM for the first, 20 nM for the second. The first is the more potent here.

Compared with `CCOC(=O)C1=C(CN2CCOCC2)NC(c2nccs2)=NC1c1ccc(F)cc1F` (configuration not stated), `CCOC(=O)C1=C(CN2CCOCC2)NC(c2nccs2)=NC1c1ccccc1F` (configuration not stated) is 2.8-fold higher in EC50: 26 nM for the first, 74 nM for the second.

Compared with `CCOC(=O)C1=C(CN2CCS(=O)(=O)CC2)NC(c2nccs2)=NC1c1ccc(F)cc1Cl` (configuration not stated), `CCOC(=O)C1=C(CN2CCSCC2)NC(c2nccs2)=NC1c1ccc(F)cc1Cl` (configuration not stated) is 3.1-fold higher in EC50: 80 nM for the first, 250 nM for the second. The first is the more potent here.

`CC1=C(C(N)=O)C(c2ccc(F)cc2Cl)N=C(c2nccs2)N1` (configuration not stated) and `CC1=C(C(=O)O)C(c2ccc(F)cc2Cl)N=C(c2nccs2)N1` (configuration not stated) cannot be ordered by EC50: greater than 16400 nM for the first, greater than 16400 nM for the second.

`CCOC(=O)C1=C(CN2CCOCC2)NC(c2nccs2)=NC1c1ccc(F)cc1-c1ccc(C(F)(F)F)cc1` (configuration not stated) and `CCOC(=O)C1=C(CN2CCOCC2)NC(c2nccs2)=NC1c1ccc(F)cc1-c1ccc(OC)cc1` (configuration not stated) cannot be ordered by EC50: greater than 16400 nM for the first, greater than 16400 nM for the second.

Going from `CCOC(=O)C1=C(CNCCO)NC(c2nccs2)=NC1c1ccc(F)cc1Cl` (configuration not stated) to `CCOC(=O)C1=C(C)NC(c2nccs2)=NC1c1ccc(F)cc1Cl` (configuration not stated), the EC50 falls from 900 nM to 150 nM (6-fold).

Going from `CCOC(=O)C1=C(CN2CCOCC2)NC(c2nccs2)=NC1c1ccccc1Br` (configuration not stated) to `CCOC(=O)C1=C(CN2CCNCC2)NC(c2nccs2)=NC1c1ccc(F)cc1Cl` (configuration not stated), the EC50 rises from 10 nM to greater than 16400 nM.

Molecule `CCOC(=O)C1=C(CN2CCOCC2)N(C)C(c2nccs2)=NC1c1ccc(F)cc1Cl` (configuration not stated) has an EC50 greater than 16400 nM.
